From patent publication US20190352339A1, “PEPTIDE INHIBITOR OF TRANSMEMBRANE PORE FORMATION AND EFFLUXPUMP FUNCTION IN A SMALL MULTIDRUG RESISTANCE PROTEIN FROM PSEUDOMONAS AERUGINOSA” (priority 2017, published 2019)
Square brackets hold non-standard residues; d marks the D form. Peptide text beside a SMILES is read from it. Sar = CNCC(=O)O

Assays:
[1] = tested on: human red blood cells (RBCs); assay type: cell-based; details: for minimal hemolytic concentration (MHC): red cells of human
Procedure: (§1) FIG. 4. (A) Proof-of-concept: Inhibition of Hsmr activity by an SMR TM4-mimic peptide. Hsmr-mediated efflux of the fluorescent toxicant ethidium bromide (EtBr) from E. coli cells upon treatment with a peptide derived from Hsmr TM4(85-105) [sequence shown]. Curves represent the change in EtBr fluorescence upon exiting the bacteria. Ac-A=acetyl-Ala. The black line indicates efflux by Hsmr in the absence of peptide; red line=efflux after addition of 1 μM TM4 peptide. The % efflux is compared in the black and red bars at the right. (B) Bioactivity profiles of designed SMR drug efflux inhibitor peptides. Four assays—EtBr efflux activity (Efflux), EtBr resensitization (ER), antimicrobial activity (AA), and hemolytic activity in human red blood cells (RBC) are depicted for linear peptides TM4(85-105) (left panel), and TM4(88-100) (centre); and stapled (S) peptide S-TM4(88-100)-N95 (right). Values for ER, AA and RBCs are given as the minimal inhibitory (MIC) or hemolytic concentration (MHC) (right axis).
As a necessary measure for any projected clinical applications of the designed inhibitors, hemolytic activity of peptides is assayed in human RBCs to confirm mammalian cell tolerance [Yin et al., 2012, J. Biol. Chem. 287, 7738-7745].

Hsmr = test: EtBr efflux assay, E. coli expressing Hsmr; assay type: cell-based, Halobacterium salinarum; details: E. coli cells expressing Hsmr, EtBr fluorescence decay
Procedure: as §1
FIG. 5. (A) Ethidium bromide efflux from E. coli bacteria expressing Hsmr. Peptides were added to ethidium bromide (EtBr) treated cells and incubated for 1 hr. The fluorescence of EtBr drops as the toxin is effluxed from the cells. ‘No peptide’ (maximum efflux control) is depicted in black. The core sequences of the peptides studied are based on the consensus sequence in Table 1. Residues in red emphasize retention of the common SMR TM4-TM4 interface in pathogenic bacteria. (B) EtBr efflux from E. coli containing plasmid-borne SMR from P. aeruginosa, (Psmr), as mediated by peptide LIN (full sequence=Ac-A(Sar)3-^88IIGIALINAGVVV^100-KKK-NH2). This experiment was performed as described in FIG. 4. […]
EtBr efflux represents a rapid and validated means by which to screen for SMR-mediated resistance activity [Poulsen and Deber, 2012, Antimicrob. […] Upon its removal, EtBr efflux is monitored by fluorescence decay.

E. coli = test: EtBr resensitization assay; assay type: cell-based; details: sublethal toxicant plus peptide; FIG. 4B, result in words
Procedure: as §1
Resensitization to EtBr and other toxic SMR substrates are evaluated by incubating the bacteria with a sublethal concentration of the toxicant and twofold dilutions of peptide at 37° C. for 20 hr, after which bacterial growth (or lack thereof) is evaluated [Bellman-Sickert et al., 2015, J. Biol. Chem. 290, 1752-1759]. […]

[2] = target: T1, SMR from P. aeruginosa (Psmr) (Pseudomonas aeruginosa, UniProt Q9HUH5); test: EtBr efflux assay, E. coli containing plasmid-borne Psmr; assay type: cell-based; details: 8 μM peptide; FIG. 5B
T1 construct: expressed in transfected cells; host or cells: E. coli
T1 sequence (Q9HUH5 whole entry, looked up): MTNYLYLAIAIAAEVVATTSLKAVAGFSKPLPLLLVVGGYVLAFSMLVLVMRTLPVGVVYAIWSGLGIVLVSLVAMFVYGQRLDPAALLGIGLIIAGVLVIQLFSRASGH
Procedure: FIG. 5. (A) Ethidium bromide efflux from E. coli bacteria expressing Hsmr. Peptides were added to ethidium bromide (EtBr) treated cells and incubated for 1 hr. The fluorescence of EtBr drops as the toxin is effluxed from the cells. ‘No peptide’ (maximum efflux control) is depicted in black. The core sequences of the peptides studied are based on the consensus sequence in Table 1. Residues in red emphasize retention of the common SMR TM4-TM4 interface in pathogenic bacteria. (B) EtBr efflux from E. coli containing plasmid-borne SMR from P. aeruginosa, (Psmr), as mediated by peptide LIN (full sequence=Ac-A(Sar)3-^88IIGIALINAGVVV^100-KKK-NH2). This experiment was performed as described in FIG. 4.
EtBr efflux represents a rapid and validated means by which to screen for SMR-mediated resistance activity [Poulsen and Deber, 2012, Antimicrob. Agents Chemother. 56, 3911-3916]. Here, E. coli cells are incubated with the peptide, EtBr and carbonyl cyanide 3-chlorophenylhydrazone (CCCP), a widely-used ionophore that acts as a disruptor of the proton-motive force. Upon its removal, EtBr efflux is monitored by fluorescence decay.
In this context, we have recently performed two pilot studies. […]

[3] = tested on: E. coli (BL21 strain) overexpressing the SMR from P. aeruginosa (Psmr); test: Resensitization of bacteria to growth inhibition by benzalkonium chloride (BZK); assay type: cell-based; details: for inhibition of bacterial growth, single agent: agent alone (sublethal BZK or non-toxic dose of peptide); for inhibition of bacterial growth, single agent / inhibition of bacterial growth, peptide together with BZK: result in words; for inhibition of bacterial growth, peptide together with BZK: sub-lethal concentration of BZK plus peptide
Procedure: FIG. 7. Resensitization of bacteria to growth inhibition by the disinfectant benzalkonium chloride (BZK). […] However, when the BZK and TM4 peptide were both present at the same concentrations, the bacterial growth was reduced to <1% [i.e., inhibited to >99% (arrow)]. As a control, the same experiment was performed with a ‘scrambled’ version of TM4 peptide (termed SCR control), having identical amino acid composition but lacking the GG7 motif for binding to Psmr and disruption of its native dimer. […] TM4 peptide=Ac-Ala-(Sar)3-[…]-KKK—NH2 (see also Table 1). SCR control peptide=Ac-Ala-(Sar)3-LLVLAGIGIIGLV-KKK—NH2.
Antimicrobial peptides are exciting leads in the development of novel biocidal agents. Such peptides are currently used commercially in topical formulations, such as the lipopeptides polymyxin B and daptomycin [Kalorama Information Market Intelligence Report, “Health Care Infection Control Market” (126 reports; published on-line May, 2016)]. […] 2013. p. 128]. Despite this, we are not aware of any reports of a peptide that inhibits and/or prevents bacterial resistance to BZK and to other biocide mainstays of hospital and health care facilities. In this context, we examined the ability of the prototypic inhibitor peptides described herein to resensitize pathogenic bacteria to BZK and related disinfectants.

[4] = sublethal BZK and non-toxic dose of peptide both present, FIG. 7

| Compound | hemolytic activity [1] | minimal hemolytic concentration (MHC) [1] [µM] | inhibition of Hsmr-mediated EtBr efflux (Hsmr) | inhibition of bacterial growth, single agent [3] | inhibition of bacterial growth, peptide together with BZK [3] | other results |
| --- | --- | --- | --- | --- | --- | --- |
| CC[C@H](C)[C@H](NC(=O)[C@H](CC(C)C)NC(=O)[C@H](C)NC(=O)[C@H](CC(C)C)NC(=O)CNC(=O)[C@@H](NC(=O)[C@@H](NC(=O)CNC(=O)[C@H](C)NC(=O)[C@@H](NC(=O)CN(C)C(=O)CN(C)C(=O)CN(C)C(=O)[C@H](C)NC(C)=O)C(C)C)C(C)C)C(C)C)C(=O)N[C@H](C(=O)N[C@@H](C)C(=O)NCC(=O)N[C@H](C(=O)N[C@H](C(=O)N[C@H](C(=O)N[C@@H](CC(C)C)C(=O)N[C@@H](CC(N)=O)C(=O)N[C@H](C(=O)N[C@@H](C)C(=O)N[C@@H](CO)C(=O)N[C@@H](CCCCN)C(=O)N[C@@H](CCCCN)C(=O)N[C@@H](CCCCN)C(N)=O)C(C)C)C(C)C)C(C)C)C(C)C)C(C)C [TM4(85-105)] (Ac-A[Sar][Sar][Sar]VAGVVGLALIVAGVVVLNVASKKK-NH2) | partially hemolytic | ~10 | specifically inhibit Hsmr-mediated efflux | – | – | – |
| CC[C@H](C)[C@H](NC(=O)[C@H](CC(C)C)NC(=O)[C@H](C)NC(=O)[C@H](CC(C)C)NC(=O)CNC(=O)[C@@H](NC(=O)[C@@H](NC(=O)CN(C)C(=O)CN(C)C(=O)CN(C)C(=O)[C@H](C)NC(C)=O)C(C)C)C(C)C)C(=O)N[C@H](C(=O)N[C@@H](C)C(=O)NCC(=O)N[C@H](C(=O)N[C@H](C(=O)N[C@H](C(=O)N[C@@H](CCCCN)C(=O)N[C@@H](CCCCN)C(=O)N[C@@H](CCCCN)C(N)=O)C(C)C)C(C)C)C(C)C)C(C)C [TM4(88-100)] (Ac-A[Sar][Sar][Sar]VVGLALIVAGVVVKKK-NH2) | total absence of hemolysis | > 200 | significant efflux | – | – | EtBr resensitization (ER) (E. coli): excellent resensitization; inhibition of Hsmr-mediated EtBr efflux (Hsmr; listed as Hsmr TM4(88-100)): maintain SMR inhibitory function at levels comparable to the full-length TM4 peptide |
| Ac-A(Sar)3-^88IIGIALINAGVVV^100-KKK-NH2 (Ac-A[Sar][Sar][Sar]IIGIALINAGVVVKKK-NH2; SMILES CC[C@H](C)[C@H](NC(=O)CNC(=O)[C@@H](NC(=O)[C@@H](NC(=O)CN(C)C(=O)CN(C)C(=O)CN(C)C(=O)[C@H](C)NC(C)=O)[C@@H](C)CC)[C@@H](C)CC)C(=O)N[C@@H](C)C(=O)N[C@@H](CC(C)C)C(=O)N[C@H](C(=O)N[C@@H](CC(N)=O)C(=O)N[C@@H](C)C(=O)NCC(=O)N[C@H](C(=O)N[C@H](C(=O)N[C@H](C(=O)N[C@@H](CCCCN)C(=O)N[C@@H](CCCCN)C(=O)N[C@@H](CCCCN)C(N)=O)C(C)C)C(C)C)C(C)C)[C@@H](C)CC) | – | – | – | – | – | inhibition of Psmr-mediated EtBr efflux [2]: inhibition of efflux |
| Ac-Ala-(Sar)3-LLGIGLIIAGVLV-KKK—NH2 (Ac-A[Sar][Sar][Sar]LLGIGLIIAGVLVKKK-NH2; SMILES CC[C@H](C)[C@H](NC(=O)CNC(=O)[C@H](CC(C)C)NC(=O)[C@H](CC(C)C)NC(=O)CN(C)C(=O)CN(C)C(=O)CN(C)C(=O)[C@H](C)NC(C)=O)C(=O)NCC(=O)N[C@@H](CC(C)C)C(=O)N[C@H](C(=O)N[C@H](C(=O)N[C@@H](C)C(=O)NCC(=O)N[C@H](C(=O)N[C@@H](CC(C)C)C(=O)N[C@H](C(=O)N[C@@H](CCCCN)C(=O)N[C@@H](CCCCN)C(=O)N[C@@H](CCCCN)C(N)=O)C(C)C)C(C)C)[C@@H](C)CC)[C@@H](C)CC) [TM4 peptide] | – | – | – | neither of which individually significantly inhibited bacterial growth | completely abolishes E. coli growth | bacterial growth [3, 4]: < 1%; inhibition of bacterial growth [3, 4]: > 99% |
| Ac-Ala-(Sar)3-LLVLAGIGIIGLV-KKK—NH2 (Ac-A[Sar][Sar][Sar]LLVLAGIGIIGLVKKK-NH2; SMILES CC[C@H](C)[C@H](NC(=O)CNC(=O)[C@H](C)NC(=O)[C@H](CC(C)C)NC(=O)[C@@H](NC(=O)[C@H](CC(C)C)NC(=O)[C@H](CC(C)C)NC(=O)CN(C)C(=O)CN(C)C(=O)CN(C)C(=O)[C@H](C)NC(C)=O)C(C)C)C(=O)NCC(=O)N[C@H](C(=O)N[C@H](C(=O)NCC(=O)N[C@@H](CC(C)C)C(=O)N[C@H](C(=O)N[C@@H](CCCCN)C(=O)N[C@@H](CCCCN)C(=O)N[C@@H](CCCCN)C(N)=O)C(C)C)[C@@H](C)CC)[C@@H](C)CC) [SCR peptide, scrambled version of TM4 peptide, identical composition but lacking the GG7 motif, reference compound] | – | – | – | neither the mixture of BZK+SCR peptide nor the SCR peptide alone inhibited bacterial growth | neither the mixture of BZK+SCR peptide nor the SCR peptide alone inhibited bacterial growth | inhibition of bacterial growth, peptide together with BZK ([3]; listed as ‘scrambled’ analog of the TM4 peptide): inactive |
| benzalkonium chloride [BZK, reference compound] | – | – | – | neither of which individually significantly inhibited bacterial growth | – | – |
